Patent US6054315A, “Method for making activated neutrophils recognizable to macrophages” (The Board of Regents of the University of Oklahoma, priority 1997, dated 2000)

Tests used:
[1] = target: T1, recombinant galectin-1 (Cys at the 2nd residue converted to Ser) (Cricetulus griseus, UniProt P48538, C3S); test: Galectin-1 agglutination of activated neutrophils and desialylated HL-60 cells, inhibition by sugars; type: cell-based, hamster
T1 construct: made in house; host or cells: E. coli (for the recombinant CHO galectin-1)
Method: In all cases cell binding of galectin-1 to cells was inhibited by 10 mM lactose, a known inhibitor of galectin-1 (FIG. 1), but not by 10 mM maltose, an isomeric, non-inhibitory analog (data not shown). We noted that both activated neutrophils and desialylated HL-60 cells are strongly agglutinated by galectin-1, whereas resting neutrophils and HL-60 cells are not appreciably agglutinated, which further underscores the profound differences in surface phenotypes between resting and activated neutrophils.
(§1) Annexin V is a protein that recognizes phosphatidyl serine (PS) and is a convenient marker for apoptosis of neutrophils and other cells (S. J. Martin, C. P. Reutelingsperger, A. J. McGahon, J. A. Rader, R. C. van Schie, D. M. LaFace and D. R. Green D R, J. Exp. Med., 182:1545, 1995; C. H. Homburg, M. de Haas, A. E. von dem Borne, A. J. Verhoeven, C. P. Reutelingsperger and D. Roos, Blood, 85:532, 1995; I. Vermes, C. Haanen, H. Steffens-Nakken, and C. Reutelingsperger, J. Immunol. Methods, 184:39, 1995; Z. Darzynkiewicz, G. Juan, X. Li, W. Gorczyca, T. Murakami, and F. Traganos, Cytometry 27:1, 1997). […] Within 90 minutes following treatment with 10 μM galectin-1, 36% of the activated neutrophils undergo apoptosis, as determined by their staining with annexin V (FIG. 2A). […]

[2] = target: T1, recombinant galectin-1 (Cys at the 2nd residue converted to Ser); test: Binding of biotinylated galectin-1 to activated neutrophils and desialylated HL-60 cells (flow cytometry), inhibition by sugars; type: cell-based, hamster; details: sugar at 10 mM; galectin-1 10 μg/ml, 30 minutes on ice
Excerpt: Isolated neutrophils were activated by treatment with PMA and HL-60 cells were desialylated by treatment with neuraminidase. Heparinized blood was obtained from normal donors. Neutrophils were isolated by dextran sedimentation, hypotonic lysis, and density gradient centrifugation on Histopaque-1077 (Sigma), as described [G. A. Zimmerman, T. M. McIntyre, and S. M. Prescott, J. Clin. Invest., 76:2235, 1985]. Typically, the polymorphonuclear cells were >90% neutrophils by Wright-Giemsa staining and >90% CD16^+ as assessed by flow cytometry. Neutrophils were activated by treatment with phorbol myristate acetate (PMA) (Sigma) (0.5 μM) for 20 minutes at 37° C. in RPMI containing 20% FCS (0.5 ml). HL-60 cells were routinely maintained in RPMI containing 20% FCS. Desialylated HL-60 cells were prepared by treating 3×10^7 cells with Arthrobacter ureafaciens neuraminidase (Sigma) (100 mU) in 500 μl of RPMI containing 20% FCS for 1 hour at 37° C. […] The washed cells were incubated with FITC-streptavidin (1:100 dilution) (Sigma), washed once with PBS, and analyzed by flow cytometry. […] "Unstained" indicates fluorescence of either resting neutrophils or HL-60 cells incubated in the absence of either MAL or galectin-1. "Control" indicates fluorescence of either activated neutrophils or desialylated HL-60 cells incubated with galectin-1 in the presence of 10 mM lactose. […]

[3] = target: T1, recombinant galectin-1 (Cys at the 2nd residue converted to Ser); test: Galectin-1-induced apoptosis of activated neutrophils and desialylated HL-60 cells (annexin V), inhibition by sugars; type: cell-based, hamster; details: galectin-1 10 μM; lactose 10 mM in the method
Method: Resting or activated neutrophils (3×10^6 cells) were treated with galectin-1 (10 μM) in 0.5 ml of HBSS (lacking Ca^2+ /Mg^2+ and containing 0.5% human albumin) for 90 minutes at 37° C. in the presence or absence of 10 mM lactose. HL-60 cells and desialylated HL-60 cells (3×10^6 cells/0.5 ml) were treated with galectin-1 (10 μM) for 20 hours at 37° C. in the presence or absence of 10 mM lactose. At the end of the incubations all cells were treated with 10 mM lactose in PBS to disaggregate the cells. […]
as §1

[4] = target: native galectin-1 (native lectin) (Cricetulus griseus, UniProt P48538); test: Equilibrium dialysis, binding of N-acetyllactosamine; set-up: species or system hamster; details: stated as similar affinity to the mutants
Method: (§2) To investigate whether dimerization of the galectin-1 is required to induce apoptosis, mutated forms of galectin-1 were prepared. Recombinant hamster galectin-1, which is highly homologous in sequence with bovine and human galectin-1 with 100% identity at the N- and C-termini positions was used. The protein was prepared as described in Cho and Cummings, 1995b, J. Biol. Chem., 270:5198-5206, ibid, J. Biolchem, 270:5207, 1995. This protein (monomeric or dimeric) contains a stabilizing mutation in which Cys at the 2nd residue was converted to Ser.
Specific mutations were created in the N- and C-termini of hamster galectin-1, as indicated in FIG. 3 and as described in further detail in Cho and Cummings, Biochemistry, 35:13081, 1996, which is hereby incorporated by reference herein in its entirety. C2S-Gal-1 contains a single replacement of Cys-2 to Ser. V5D-Gal-1 contains a single mutation of Val-5 to Asp. N-Gal-1 contains disruptions of three hydrophobic amino acids at the N-terminus. We also made another mutant construct, termed N/C-Gal-1, which contained the amino terminal changes of N-Gal-1 in addition to multiple changes in specific hydrophobic amino acids at the C-terminus (data not shown). All mutants, except for C2S-Gal-1, behaved as monomers in size exclusion HPLC and native gel electrophoresis. […]

[5] = target: T2, hamster galectin-1 mutant N-Gal-1 (monomeric; disruptions of three hydrophobic amino acids at the N-terminus) (Cricetulus griseus, UniProt P48538, A7S/C3S/L5Q/V6D); test: as above
T2 construct: made in house; host or cells: E. coli (for the recombinant CHO galectin-1)
Method: as §2
(§3) Specific mutations were created in the N- and C-termini of hamster galectin-1, as indicated in FIG. 3 and as described in further detail in Cho and Cummings, Biochemistry, 35:13081, 1996, which is hereby incorporated by reference herein in its entirety. C2S-Gal-1 contains a single replacement of Cys-2 to Ser. V5D-Gal-1 contains a single mutation of Val-5 to Asp. N-Gal-1 contains disruptions of three hydrophobic amino acids at the N-terminus. We also made another mutant construct, termed N/C-Gal-1, which contained the amino terminal changes of N-Gal-1 in addition to multiple changes in specific hydrophobic amino acids at the C-terminus (data not shown). All mutants, except for C2S-Gal-1, behaved as monomers in size exclusion HPLC and native gel electrophoresis. C2S-Gal-1 was indistinguishable from the native lectin in its ability to undergo monomer-dimer equilibrium and in its carbohydrate-binding affinity. […] However, in equilibrium dialysis N-Gal-1 and V5D-Gal-1 bound N-acetyllactosamine with similar affinity (Kd 90 μM) to that of the C2S-Gal-1 and the native lectin. […] N/C-Gal-1 was non-functional.

[6] = target: T3, hamster galectin-1 mutant C2S-Gal-1 (Cys-2 to Ser) (Cricetulus griseus, UniProt P48538, C3S); test: as above; details: stated as similar affinity to the mutants
T3 construct: made in house; host or cells: E. coli (for the recombinant CHO galectin-1)
Method: as §2, §3

[7] = target: T4, hamster galectin-1 mutant V5D-Gal-1 (Val-5 to Asp) (Cricetulus griseus, UniProt P48538, V6D); test: as above
T4 construct: made in house; host or cells: E. coli (for the recombinant CHO galectin-1)
Method: as §2, §3

T1 sequence (P48538 whole entry C3S): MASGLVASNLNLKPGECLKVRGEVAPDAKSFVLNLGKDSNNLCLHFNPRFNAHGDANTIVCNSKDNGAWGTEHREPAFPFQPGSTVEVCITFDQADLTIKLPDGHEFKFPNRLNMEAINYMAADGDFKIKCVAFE
T4 sequence (P48538 whole entry V6D): as the sequence (P48538 whole entry C3S) above, with S3C, V6D counted along it
T2 sequence (P48538 2-135 C3S/L5Q/V6D/A7S limits assumed): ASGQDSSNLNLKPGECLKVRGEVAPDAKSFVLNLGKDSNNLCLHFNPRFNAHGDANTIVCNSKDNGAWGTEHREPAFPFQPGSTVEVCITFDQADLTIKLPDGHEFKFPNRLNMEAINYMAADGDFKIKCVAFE
Sequence of native galectin-1 (native lectin) (P48538 2-135): as the sequence (P48538 2-135 C3S/L5Q/V6D/A7S limits assumed) above, with S2C, Q4L, D5V, S6A counted along it
T3 sequence (P48538 whole entry C3S): as the sequence (P48538 whole entry C3S) above

## OC[C@H]1O[C@H](O[C@H]2[C@H](O)[C@@H](O)[C@H](O)O[C@@H]2CO)[C@H](O)[C@@H](O)[C@@H]1O [maltose]
[1]
  inhibition of cell agglutinating activity of galectin-1: not
[2]
  inhibition of binding of galectin-1 to cells: not
[3]
  inhibition of apoptosis-inducing activity of galectin-1: not

## CC(=O)N[C@H]1C(O)O[C@H](CO)[C@@H](O[C@@H]2O[C@H](CO)[C@H](O)[C@H](O)[C@H]2O)[C@@H]1O (stereo partly shown) [N-acetyllactosamine]
[4]
  Kd: ~90 µM
[5]
  Kd: 90 µM
[6]
  Kd: ~90 µM
[7]
  Kd: 90 µM

## OC[C@H]1O[C@@H](O[C@H]2[C@H](O)[C@@H](O)C(O)O[C@@H]2CO)[C@H](O)[C@@H](O)[C@H]1O (stereo partly shown) [lactose]
[1]
  inhibition of cell agglutinating activity of galectin-1: inhibited
[2]
  inhibition of binding of galectin-1 to cells: inhibited
[3]
  inhibition of apoptosis-inducing activity of galectin-1: inhibited
